In patent US10624910B2, “Thrombin-like enzyme for reducing a side effect of an anticancer drug” (priority 2007, dated 2020):
Marks after values point to notes of the source that are not given here.

Tests used:
Assay type in all cases: in vivo
male C57BL/6 mice [1] = test: Reducing effect of batroxobin on lethal toxicity caused by adriamycin; details: ADM 3 mg/kg i.p. (+ batroxobin 30 BU/kg i.p.) once every other day, 18 times; 41th day after first dose
From the text: (§1) The thrombin-like enzyme, batroxobin (hereinafter referred to as DF-521) was used, which is manufactured by Beijing Tobishi Pharmaceutical Co., Ltd. (Beijing, China) with a trade name of Dong Ling Di Fu.
The anticancer drug, adriamycin (hereinafter referred to as ADM) was used, which is manufactured by Hualian Pharmaceutical Factory of Shanghai Pharmaceutical (Group) Co., Ltd.
The laboratory animals, male C57BL/6 mice (weight: 19-22 g) were divided into three groups: control group, adriamycin group (ADM group), and adriamycin+batroxobin group (ADM+DF-521 group), with 10 mice in each group. The control group was administered with physiological saline.
The adriamycin group was given an intraperitoneal dose (3 mg/kg) of adriamycin once every other day. The adriamycin+batroxobin group was given a simultaneous dosage of 3 mg/kg of adriamycin and 30 BU/kg of batroxobin intraperitoneally, once every other day. The drug administration was performed in total of 18 times. The experiment was terminated on the 41th day after the first dose administered. The number of deaths was totaled, and the survival rate was calculated from mortality rate.

[2] = tested on: C57BL/6 male mice inoculated with B16-BL6 murine malignant melanoma cells; test: Reducing effect of batroxobin on cardiotoxicity caused by adriamycin (H&E histopathology of left ventricular myocardial tissue); details: batroxobin 20 BU/kg i.p. once a day and/or adriamycin 3 mg/kg i.p. once interval of 2 days; after 20 days
From the text: as §1
The anticancer drug, adriamycin (hereinafter referred to as ADM) was used, which is manufactured by Shenzhen Main Luck Pharmaceuticals Inc.
The laboratory animals, C57BL/6 male mice (weight: 16-18 g) were divided into 4 groups: 10 mice in the control group, 7 mice in the batroxobin group, 7 mice in the adriamycin group, and 7 mice in the adriamycin+batroxobin group. Mice from each group were inoculated with a dorsal right lateral subcutaneous injection of 3×10^6 B16-BL6 murine malignant melanoma cells in 0.3 ml of tumor cell suspension. After one day of tumor cell inoculation, the control group was given an intraperitoneal injuction of physiological saline once a day; the batroxobin group was given an intraperitoneal injection of batroxobin (20 BU/kg) once a day; the adriamycin group was given an intraperitoneal injection of adriamycin (3 mg/kg) once interval of 2 days; the adriamycin+batroxobin group was given an intraperitoneal injection of adriamycin (3 mg/kg) once interval of 2 days and an intraperitoneal injection of 20 BU/kg batroxobin once a day after administration of adriamycin. […]

C57BL/6 Mice = test: Reducing effect of batroxobin on bone marrow suppression caused by adriamycin; details: ADM 3 mg/kg i.p. (+ batroxobin 30 BU/kg i.p.) once every other day; after 9th administration
From the text: as §1
The anticancer drug, adriamycin (hereinafter referred to as ADM) was used, which is manufactured by Hualian Pharmaceutical Factory of Shanghai Pharmaceutical Group Co., Ltd.
The laboratory animals, C57BL/6 Mice (weight: 19-22 g) were divided into three groups: control group, adriamycin group (ADM group), and adriamycin+batroxobin (ADM+DF-521 group), with 5-10 mice (n=5 or 10) in one group. The control group was given physiological saline once every other day. The adriamycin group was given an intraperitoneal dose of 3 mg/kg of adriamycin once every other day. The adriamycin+batroxobin group was given an intraperitoneal doses of 3 mg/kg of adriamycin and 30 BU/kg of batroxobin simultaneously, once every other day. After the 9th administration, the experiment was terminated, and the blood was collected from the femoral artery under ether anesthesia using the EDTA anticoagulant. Then, the WBC, RBC counts and Hb value were measured.
Furthermore, the bone marrow nuclear cell (BMNC) count per femur of a mouse was measured with the following procedure. The bone marrow was sampled from 2 femora of a mouse, bone marrow was flushed with the 2 ml physiological saline, and made the bone marrow cell suspension. Twenty of marrow cell suspension was put into 380 μl of 3% acetic acid solution. After the red blood cells were destroyed, the hemocytometer was used for counting the BMNC count under the microscope. Then the BMNC count per femur was calculated.
The above-mentioned BMNC, RBC, WBC counts and Hb value were used as an evaluation index for bone marrow suppression caused by adriamycin.

Rat (Wistar) = test: Acute toxicity of batroxobin (i.v.), rat
Experimental: (§2) The thrombin-like enzyme, batroxobin is used in the present agent. The acute toxicity (LD50 (BU/kg)) of batroxobin on mice, rats, rabbits and dogs is as follows in Table 1. The acute toxicity test was assessed by the intravenous administration of batroxobin.

Rabbit (NW) = test: Acute toxicity of batroxobin (i.v.), rabbit
Experimental: as §2

Dog (mongrel) = test: Acute toxicity of batroxobin (i.v.), dog
Experimental: as §2

Mouse (ddy) = test: Acute toxicity of batroxobin (i.v.), mouse
Experimental: as §2

male C57BL/6 mice [3] = test: Reducing effect of batroxobin on bone marrow suppression caused by cisplatin; details: DDP 0.8 mg/kg i.p. (+ batroxobin 30 BU/kg i.p.) once every other day; after 17th administration (33rd day)
From the text: as §1
The anticancer drug, cisplatin (hereinafter referred to as DDP) was used, which is manufactured by Yunnan Gejiu Biochemical Pharmaceutical Co., Ltd.
The laboratory animals, male C57BL/6 Mice (weight: 20-22 g) were divided into 3 groups: control group, cisplatin group (DDP group), and cisplatin+batroxobin group (DDP+DF-521 group); with 10 mice in one group. The control group was given physiological saline once every other day. The cisplatin group was given an intraperitoneal dose of 0.8 mg/kg of cisplatin once every other day. The cisplatin+batroxobin group was given an intraperitoneal dose of 0.8 mg/kg of cisplatin and 30 BU/kg of batroxobin simultaneously, once every other day. After the 17th administration (33rd day after the first administration), the experiment was terminated, blood was collected from the femoral artery under ether anesthesia using the anticoagulant EDTA, and the WBC, RBC, Plt counts and Hb value, were measured.
Furthermore the bone marrow nuclear cell (BMNC) count per femur of a mouse was measured by the following procedure. Bone marrow was sampled from 2 femora of a mouse, the bone marrow was flushed with the 2 ml physiological saline, and made bone marrow cell suspension. Twenty μl of marrow cell suspension was put into 380 μl of 3% acetic acid solution. After the red blood cells were destroyed, the hemocytometer was used for counting the BMNC count under the microscope. Then, the BMNC count per femur was calculated.
The above-mentioned BMNC, WBC, RBC, Plt counts and Hb value were used as an evaluation index for bone marrow suppression caused by cisplatin.

male C57BL/6 mice [4] = test: Reducing effect of batroxobin on bone marrow suppression caused by cyclophosphamide; details: CPA 100 mg/kg i.p. (+ batroxobin 30 BU/kg i.p.) once every other day; after fourth administration (7 days)
From the text: as §1
The anticancer chug, cyclophosphamide (hereinafter referred to as CPA) was used, which is manufactured by Shanxi Powerdone Pharmaceutical Co., Ltd.
The laboratory animals, male C57BL/6 mice (weight: […] were divided into three groups: control group, cyclophosphamide group (CPA group), and cyclophosphamide+batroxobin group (CPA+DF-521 group), with five mice in one group. The control group was given physiological saline once every other day. The cyclophosphamide group was given an intraperitoneal dose of 100 mg/kg of cyclophosphamide once every other day. The cyclophosphamide+batroxobin group was given an intraperitoneal dose of 100 mg/kg of cyclophosphamide and 30 BU/kg of batroxobin simultaneously, once every other day. After the fourth administration (7 days after the first administration), blood was collected from the femoral artery under ether anesthesia using the EDTA anticoagulant, and the white blood cell count (WBC), red blood cell count (RBC), hemoglobin value (Hb), and platelet count (Plt) was measured.
The bone marrow nuclear cell count (BMNC) per femur of a mouse was measured by the following procedure. Bone marrow was sampled from 2 femora of a mouse, the marrow was flushed with 2 ml of physiological saline, and made the bone marrow cell suspension. Twenty μl of bone marrow cell suspension was put into […] of 3% acetic acid solution. After the red blood cells were destroyed, the hemocytometer was used for counting the BMNC count under the microscope. Then the BMNC count per femur was calculated.
The above-mentioned BMNC, WBC, RBC, Plt counts and Hb value are used as an evaluation index for bone marrow suppression caused by cyclophosphamide.

`COc1cccc2c1C(=O)c1c(O)c3c(c(O)c1C2=O)C[C@@](O)(C(=O)CO)C[C@@H]3O[C@H]1C[C@H](N)[C@H](O)[C@H](C)O1` [ADM, adriamycin] was tested, and the “Survival No/Total No” value (male C57BL/6 mice [1]) was 4/10*, the survival rate % (male C57BL/6 mice [1]) was “(40%)” and the “Pathological findings in left ventricular myocardial tissue (H&E) compared to control group” value [2] was “abnormalities were observed”. For the same compound, the BMNC (C57BL/6 Mice) was 6.9 ± 1.6 ×10^6/bone, the Hb (C57BL/6 Mice) was 94.9 ± 30.5 g/L and the RBC (C57BL/6 Mice) was 6.6 ± 1.5 ×10^12/L. The WBC (C57BL/6 Mice) was 3.4 ± 0.7 ×10^9/L.

In the case of batroxobin, the “LD50 Value” (Rat (Wistar)) was 105~110 BU/kg, the “Pathological findings in left ventricular myocardial tissue (H&E) compared to control group” value [2] was “abnormalities were not observed” and the “LD50 Value” (Rabbit (NW)) was >300 BU/kg. For the same compound, the “LD50 Value” (Dog (mongrel)) was 190~208 BU/kg and the “LD50 Value” (Mouse (ddy)) was 192~210 BU/kg.

With `N.N.[Cl][Pt][Cl]` [DDP, cisplatin] the BMNC (male C57BL/6 mice [3]) was 11.3 ± 2.6 ×10^6/bone, the Hb (male C57BL/6 mice [3]) was 121.6 ± 10.7 g/L and the Plt (male C57BL/6 mice [3]) was 1059.2 ± 241.5 ×10^9/L. For the same compound, the RBC (male C57BL/6 mice [3]) was 7.4 ± 0.8 ×10^12/L and the WBC (male C57BL/6 mice [3]) was 6.1 ± 2.2 ×10^9/L.

`O=P1(N(CCCl)CCCl)NCCCO1` (stereo not shown) [CPA, cyclophosphamide] was tested, and the BMNC (male C57BL/6 mice [4]) was 2.4 ± 0.4 ×10^6/bone, the Hb (male C57BL/6 mice [4]) was 98.8 ± 9.2 g/L and the Plt (male C57BL/6 mice [4]) was 1081.6 ± 47.4 ×10^9/L. For the same compound, the RBC (male C57BL/6 mice [4]) was 6.2 ± 0.5 ×10^12/L and the WBC (male C57BL/6 mice [4]) was 0.8 ± 0.3 ×10^9/L.
